Data as given in US20260000656A1, “ANTIFUNGAL AGENTS WITH ENHANCED ACTIVITY IN ACIDIC PH” (Scynexis, Inc., priority 2017, published 2026).
Values after ≈ are worked out from the molar mass of the structure shown. Like-named read-outs stand apart in the source and are kept apart here.

Test system: C. albicans isolates
Assay: Broth microdilution susceptibility (CLSI M27-A3) at different medium pH
Format: cell-based, Candida albicans
Conditions: Candida albicans, 24 h; for MIC50: read-out: MIC50; for MIC90: read-out: MIC90
Protocol: Ten strains each of C. glabrata and C. albicans vaginal isolates were tested. The strains were obtained from recent clinical trial patients with vulvovaginal candidiasis (VVC) prior to treatment. Candida strains were obtained from the Mycology Reference Library (MRL) at Case Western Reserve University School of Medicine, Ohio, United States.
Susceptibility testing was performed using a broth microdilution method, according to CLSI M27-A3 guidelines (CLSI. 2008. Reference Method for Broth Dilution Antifungal Susceptibility Testing of Yeasts; Approved Standard—Third Edition. Clinical and Laboratory Standards Institute, CLSI document M27-A3). Antifungals and concentrations tested were SCY-078 and micafungin (both at concentrations within the range of 0.015 to 8 μg/ml) and fluconazole (at concentrations within the range of 0.125 to 64 μg/ml). A 0.1-ml C. albicans and C. glabrata inoculum of 0.5-2.5×10^3 blastospores/ml in RPMI 1640 medium was added to each microdilution well. ATCC strains of Candida parapsilosis and Candida krusei QC isolates were also included concurrently to ensure quality control. Antifungal susceptibility testing was carried out for each isolate in RPMI 1640 at pH 7 (to mimic RPMI medium used in testing the susceptibility of yeast by the CLSI M-27A3 document), pH 5.7, and pH 4.5 (to mimic the pH of the vaginal cavity) by adjusting the pH of the media using NaOH or HCl. […] Agents Chemother., 43: 1383-1386 (1999).
[…] SCY-078 powder was manufactured by Avista, Laboratories, NC. Micafungin and fluconazole were sourced from LGM Pharma.

[1] = pH 7, 50% inhibition, pH 7.0, 24 h, 10 vaginal isolates
[2] = pH 7, 100% inhibition, pH 7.0, 24 hours, 10 isolates

- MIC (pH 5.72, C. albicans MRL 34367, pH 5.72, 24 hours, read-out: MIC (100% inhibition)): 0.5 µg/mL (≈ 0.685 µM)
- MIC (pH 5.72, C. albicans MRL 34372, pH 5.72, 24 hours, read-out: MIC (50% inhibition)): 0.25 µg/mL (≈ 0.342 µM)
- MIC (pH 5.72, C. albicans MRL 34372, pH 5.72, 24 hours, read-out: MIC (100% inhibition)): 0.25 µg/mL (≈ 0.342 µM)
- MIC (pH 5.72, C. albicans MRL 34373, pH 5.72, 24 hours, read-out: MIC (50% inhibition)): 0.25 µg/mL (≈ 0.342 µM)
- MIC (pH 5.72, C. albicans MRL 34373, pH 5.72, 24 hours, read-out: MIC (100% inhibition)): 0.25 µg/mL (≈ 0.342 µM)
- MIC (pH 5.72, C. albicans MRL 34374, pH 5.72, 24 hours, read-out: MIC (50% inhibition)): 0.125 µg/mL (≈ 0.171 µM)
- MIC (pH 5.72, C. albicans MRL 34374, pH 5.72, 24 hours, read-out: MIC (100% inhibition)): 0.25 µg/mL (≈ 0.342 µM)
- MIC (pH 5.72, C. albicans MRL 34385, pH 5.72, 24 hours, read-out: MIC (50% inhibition)): 0.25 µg/mL (≈ 0.342 µM)
- MIC (pH 5.72, C. albicans MRL 34385, pH 5.72, 24 hours, read-out: MIC (100% inhibition)): 0.5 µg/mL (≈ 0.685 µM)
- MIC (pH 5.72, C. albicans MRL 34389, pH 5.72, 24 hours, read-out: MIC (50% inhibition)): 0.25 µg/mL (≈ 0.342 µM)
- MIC (pH 5.72, C. albicans MRL 34389, pH 5.72, 24 hours, read-out: MIC (100% inhibition)): 0.25 µg/mL (≈ 0.342 µM)
- MIC (pH 5.72, C. albicans MRL 34399, pH 5.72, 24 hours, read-out: MIC (50% inhibition)): 0.25 µg/mL (≈ 0.342 µM)
- MIC (pH 5.72, C. albicans MRL 34399, pH 5.72, 24 hours, read-out: MIC (100% inhibition)): 0.25 µg/mL (≈ 0.342 µM)
- MIC (pH 5.72, C. albicans MRL 34408, pH 5.72, 24 hours, read-out: MIC (50% inhibition)): 0.25 µg/mL (≈ 0.342 µM)
- MIC (pH 5.72, C. albicans MRL 34408, pH 5.72, 24 hours, read-out: MIC (100% inhibition)): 2 µg/mL (≈ 2.74 µM)
- MIC (pH 5.72, C. albicans MRL 34449, pH 5.72, 24 hours, read-out: MIC (50% inhibition)): 0.25 µg/mL (≈ 0.342 µM)
- MIC (pH 5.72, C. albicans MRL 34449, pH 5.72, 24 hours, read-out: MIC (100% inhibition)): 0.25 µg/mL (≈ 0.342 µM)
- MIC50 [1]: 0.25 µg/mL (≈ 0.342 µM)
- MIC90 [1]: 0.5 µg/mL (≈ 0.685 µM)
- MIC50 [2]: 0.25 µg/mL (≈ 0.342 µM)
- MIC90 [2]: 0.5 µg/mL (≈ 0.685 µM)
- MIC (pH 7, C. albicans MRL 34366, pH 7.0, 24 hours, read-out: MIC (50% inhibition)): 0.5 µg/mL (≈ 0.685 µM)
- MIC (pH 7, C. albicans MRL 34366, pH 7.0, 24 hours, read-out: MIC (100% inhibition)): 0.5 µg/mL (≈ 0.685 µM)
- MIC (pH 7, C. albicans MRL 34367, pH 7.0, 24 hours, read-out: MIC (50% inhibition)): 0.125 µg/mL (≈ 0.171 µM)
- MIC (pH 7, C. albicans MRL 34367, pH 7.0, 24 hours, read-out: MIC (100% inhibition)): 0.5 µg/mL (≈ 0.685 µM)
- MIC (pH 7, C. albicans MRL 34372, pH 7.0, 24 hours, read-out: MIC (50% inhibition)): 0.25 µg/mL (≈ 0.342 µM)
- MIC (pH 7, C. albicans MRL 34372, pH 7.0, 24 hours, read-out: MIC (100% inhibition)): 0.25 µg/mL (≈ 0.342 µM)
- MIC (pH 7, C. albicans MRL 34373, pH 7.0, 24 hours, read-out: MIC (50% inhibition)): 0.25 µg/mL (≈ 0.342 µM)
- MIC (pH 7, C. albicans MRL 34373, pH 7.0, 24 hours, read-out: MIC (100% inhibition)): 0.25 µg/mL (≈ 0.342 µM)
- MIC (pH 7, C. albicans MRL 34374, pH 7.0, 24 hours, read-out: MIC (50% inhibition)): 0.25 µg/mL (≈ 0.342 µM)
- MIC (pH 7, C. albicans MRL 34374, pH 7.0, 24 hours, read-out: MIC (100% inhibition)): 0.25 µg/mL (≈ 0.342 µM)
- MIC (pH 7, C. albicans MRL 34385, pH 7.0, 24 hours, read-out: MIC (50% inhibition)): 0.25 µg/mL (≈ 0.342 µM)
- MIC (pH 7, C. albicans MRL 34385, pH 7.0, 24 hours, read-out: MIC (100% inhibition)): 0.5 µg/mL (≈ 0.685 µM)
- MIC (pH 7, C. albicans MRL 34389, pH 7.0, 24 hours, read-out: MIC (50% inhibition)): 0.125 µg/mL (≈ 0.171 µM)
- MIC (pH 7, C. albicans MRL 34389, pH 7.0, 24 hours, read-out: MIC (100% inhibition)): 0.25 µg/mL (≈ 0.342 µM)
- MIC (pH 7, C. albicans MRL 34399, pH 7.0, 24 hours, read-out: MIC (50% inhibition)): 0.25 µg/mL (≈ 0.342 µM)
- MIC (pH 7, C. albicans MRL 34399, pH 7.0, 24 hours, read-out: MIC (100% inhibition)): 0.25 µg/mL (≈ 0.342 µM)
- MIC (pH 7, C. albicans MRL 34408, pH 7.0, 24 hours, read-out: MIC (50% inhibition)): 0.5 µg/mL (≈ 0.685 µM)
- MIC (pH 7, C. albicans MRL 34408, pH 7.0, 24 hours, read-out: MIC (100% inhibition)): 4 µg/mL (≈ 5.48 µM)
- MIC (pH 7, C. albicans MRL 34449, pH 7.0, 24 hours, read-out: MIC (50% inhibition)): 0.25 µg/mL (≈ 0.342 µM)
Structure (SMILES): CC(C)[C@@H](C)[C@@]1(C)CC[C@]2(C)[C@H]3CC[C@@H]4[C@@]5(COC[C@]4(C)[C@@H](OC[C@](C)(N)C(C)(C)C)[C@H](n4ncnc4-c4ccncc4)C5)C3=CC[C@@]2(C)[C@@H]1C(=O)O [SCY-078]
